Laboratory results as given in ChEMBL document CHEMBL5370637, “Receptor Interacting Ser/Thr-Protein Kinase 2 as a New Therapeutic Target” (J Med Chem, 2023).
pEC50, pIC50: −log10 of the molar value. Values belong to the compound of their own block, whether it stands above or below them.

How the values were obtained:
[1] = molecular target: T1, Receptor-interacting serine/threonine-protein kinase 2 (Homo sapiens, UniProt O43353); experiment: Inhibition of recombinant RIPK2 (unknown origin) expressed in insect cells using RBER-CHKtide as substrate assessed as inhibition of tyrosine autophosphorylation preincubated with compound for 15 mins followed by substrate addition and measured after 30 mins; design: species or system Insect cell
[2] = molecular target: MAP kinase p38 (Homo sapiens, UniProt O15264+Q15759+Q16539+P53778); experiment: Inhibition of p38 (unknown origin) by KINOMEscan assay; assay type: protein assay
[3] = molecular target: Epidermal growth factor receptor (Homo sapiens, UniProt P00533); experiment: Inhibition of EGFR (unknown origin) by KINOMEscan assay
[4] = Inhibition of RIPK (unknown origin) by KINOMEscan assay; design: species or system Homo sapiens
[5] = molecular target: T1, Receptor-interacting serine/threonine-protein kinase 2; experiment: Inhibition of recombinant RIPK2 (unknown origin) using CRRKSLVGTPYWMAPE peptide as substrate assessed as inhibition of autophosphorylation incubated for 90 mins in presence of ATP by Transcreener ADP FP assay; design: species or system Insect cell
[6] = molecular target: T1, Receptor-interacting serine/threonine-protein kinase 2; experiment: Inhibition of human RIPK2 assessed as inhibition of autophosphorylation incubated for 45 to 60 mins in presence of 32P-gamma-ATP by immunoprecipitation analysis
[7] = Induction of apoptosis in human GBM1 cells incubated for 48 hrs by immunofluorescent analysis; assay type: functional, cell-based; details: GBM1, 48 h
[8] = molecular target: T1, Receptor-interacting serine/threonine-protein kinase 2; experiment: Inhibition of RIPK2 (unknown origin)
[9] = molecular target: T1, Receptor-interacting serine/threonine-protein kinase 2

T1 sequence (O43353 whole entry): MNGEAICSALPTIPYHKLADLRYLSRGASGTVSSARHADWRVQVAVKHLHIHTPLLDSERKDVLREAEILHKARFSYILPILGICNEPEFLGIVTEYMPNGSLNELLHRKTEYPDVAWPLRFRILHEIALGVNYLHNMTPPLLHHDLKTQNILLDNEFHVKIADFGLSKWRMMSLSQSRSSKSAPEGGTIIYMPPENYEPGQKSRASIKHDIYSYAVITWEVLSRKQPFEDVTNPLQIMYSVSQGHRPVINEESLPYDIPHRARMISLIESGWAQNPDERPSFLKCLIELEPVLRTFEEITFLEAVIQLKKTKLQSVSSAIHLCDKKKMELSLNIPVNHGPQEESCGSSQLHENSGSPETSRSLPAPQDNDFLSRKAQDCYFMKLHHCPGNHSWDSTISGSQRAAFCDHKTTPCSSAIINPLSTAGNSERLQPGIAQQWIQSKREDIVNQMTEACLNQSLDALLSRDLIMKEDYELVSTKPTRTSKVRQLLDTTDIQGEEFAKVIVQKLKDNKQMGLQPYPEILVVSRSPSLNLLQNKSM
Epidermal growth factor receptor, sequence (P00533 whole entry): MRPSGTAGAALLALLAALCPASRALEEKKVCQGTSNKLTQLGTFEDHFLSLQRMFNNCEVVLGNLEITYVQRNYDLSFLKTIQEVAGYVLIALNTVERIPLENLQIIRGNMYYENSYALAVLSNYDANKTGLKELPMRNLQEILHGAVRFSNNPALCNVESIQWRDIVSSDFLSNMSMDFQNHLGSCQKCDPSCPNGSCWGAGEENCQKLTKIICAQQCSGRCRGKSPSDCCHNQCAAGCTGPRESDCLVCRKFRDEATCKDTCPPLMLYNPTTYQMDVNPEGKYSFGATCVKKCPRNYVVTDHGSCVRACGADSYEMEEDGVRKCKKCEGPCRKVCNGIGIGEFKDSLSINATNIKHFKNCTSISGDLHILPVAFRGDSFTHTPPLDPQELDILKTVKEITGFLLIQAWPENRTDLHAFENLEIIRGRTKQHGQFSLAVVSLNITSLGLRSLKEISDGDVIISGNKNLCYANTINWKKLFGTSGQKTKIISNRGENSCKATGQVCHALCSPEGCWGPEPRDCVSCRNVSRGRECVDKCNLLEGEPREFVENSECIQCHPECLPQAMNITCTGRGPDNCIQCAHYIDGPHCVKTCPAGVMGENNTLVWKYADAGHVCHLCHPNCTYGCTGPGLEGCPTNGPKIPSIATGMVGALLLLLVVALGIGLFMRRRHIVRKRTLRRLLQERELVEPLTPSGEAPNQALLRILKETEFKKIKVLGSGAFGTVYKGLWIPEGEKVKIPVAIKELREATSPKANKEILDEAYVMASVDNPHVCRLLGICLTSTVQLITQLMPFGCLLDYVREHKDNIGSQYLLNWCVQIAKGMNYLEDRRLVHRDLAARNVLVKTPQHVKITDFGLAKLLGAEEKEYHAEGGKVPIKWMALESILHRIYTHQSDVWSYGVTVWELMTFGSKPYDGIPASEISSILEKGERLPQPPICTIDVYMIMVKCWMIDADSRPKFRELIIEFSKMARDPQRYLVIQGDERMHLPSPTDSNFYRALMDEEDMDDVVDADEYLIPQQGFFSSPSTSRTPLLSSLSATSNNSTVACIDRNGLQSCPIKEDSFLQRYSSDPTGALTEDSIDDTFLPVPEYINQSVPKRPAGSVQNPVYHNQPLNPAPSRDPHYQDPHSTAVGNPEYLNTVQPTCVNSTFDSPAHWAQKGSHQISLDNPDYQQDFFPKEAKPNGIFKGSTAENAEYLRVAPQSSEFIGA

SMILES: Clc1cc2cc(c1)-c1cnn3ccc(nc13)NCCOCCO2
pIC50 [1]: 8.28

SMILES: c1cc2cc(n1)NCCOCCNc1ccn3ncc-2c3n1
pIC50 [1]: 7.85

SMILES: Cc1n(Cc2ccc(F)cc2)c2c([n+]1Cc1ccccc1)C(=O)c1ccccc1C2=O
pEC50 [7]: 7.17

Next, values leading:

IC50 [2]: > 10000 nM
pIC50 [3]: < 5.00
pIC50 [4]: < 5.00
pIC50 [5]: 6.87
SMILES: Cc1ccc(-c2nn(C(C)(C)CNC(=O)c3ccncc3)c3ncnc(N)c23)cc1

pIC50 [6]: 8.00
SMILES: Cc1ccc(C(=O)Nc2cccc(-c3nccn3C)c2)cc1NC(=O)c1ccccc1

pIC50 [8]: 5.10
SMILES: N=C(N)NCCC[C@@H]1NC(=O)/C(=C/c2c[nH]c3cc(Br)ccc23)NC1=O [BARETTIN]

pIC50 [9]: 7.15
SMILES: O=[N+]([O-])c1ccc(-c2nc(-c3ccncc3)c(-c3ccc(F)cc3)[nH]2)cc1 [PD-169316]

pIC50 [9]: 6.15
SMILES: Nc1nccc(-c2c(-c3ccc(F)cc3)ncn2C2CCNCC2)n1 [SB-220025]
